Measurements reported in US20070099259A1, “ELECTROCHEMICAL ASSAY FOR THE IDENTIFICATION OF MICROORGANISMS” (RAPID LABORATORY MICROSYSTEMS INC., priority 2003, published 2007).
Read-outs that look alike come from different tables or passages of the source.

Columns and labels:
Assay in all cases: Relative respiratory activity with 22 effectors (Example 3)
[1] = system: P. vulgaris ATCC6380; type: cell-based, Proteus vulgaris; conditions: Proteus vulgaris; for activity at 20000 µM: effector 20 mM
Excerpt: (§1) In this example, each microorganism is subjected to 22 different effector compounds in addition to control measurements. […] For each microorganism, duplicate measurements were made of 22 different effector compounds. In addition, duplicate measurements were made a control test containing no effector compound. One additional measurement was made of a control solution containing the microorganism with ferricyanide but without effector or DCIP.
(§2) In this example, each normalized data set containing duplicate measurements for each of 22 effector compounds is referenced to the duplicate internal controls to allow batch-to-batch comparison. The obtained signals of charge per unit electrode area for the duplicate control measurements are averaged and set at 100% respiratory cycle activity. […] The data set used to generate pattern recognition plots consists of 5 replicate batches (each batch containing duplicate measurements for each of 22 effector compounds) for each cell culture (10 strains). This is used to generate a 50 (columns)×22 (rows) matrix. The matrix is imported into MATLAB (Version 6.0). Factor analysis is performed using the MATLAB Chemometric Toolbox (Version 2.3) and involves the generation of reduced eigenvectors to determine the optimal number of factors, examination of the resulting residuals plots for randomness, and the generation of scores for the first four principle components.

[2] = system: S. cerevisiae; type: cell-based, Saccharomyces cerevisiae; conditions: Saccharomyces cerevisiae; for activity at 10000 µM: read-out: relative %-respiratory activity; for activity at 20000 µM: effector 20 mM
Excerpt: as §1, §2

[3] = system: E. faecalis; type: cell-based, Enterococcus faecalis; conditions: Enterococcus faecalis; for activity at 10000 µM: read-out: relative %-respiratory activity; for activity at 20000 µM: effector 20 mM
Excerpt: as §1, §2

[4] = system: E. aerogenes ATCC13048e; type: cell-based, Enterobacter aerogenes; conditions: Klebsiella aerogenes, ATCC13048E; for activity at 10000 µM: read-out: relative %-respiratory activity; for activity at 20000 µM: effector 20 mM
Excerpt: as §1, §2

[5] = system: S. aureus ATCC6538P; type: cell-based, Staphylococcus aureus; conditions: Staphylococcus aureus, ATCC6538P; for activity at 10000 µM: read-out: relative %-respiratory activity; for activity at 20000 µM: effector 20 mM
Excerpt: as §1, §2

[6] = system: E. coli JM105; type: cell-based; conditions: Escherichia coli; for activity at 20000 µM: effector 20 mM
Excerpt: as §1, §2

[7] = system: E. coli Neotype; type: cell-based; conditions: Escherichia coli; for activity at 10000 µM: read-out: relative %-respiratory activity; for activity at 20000 µM: effector 20 mM
Excerpt: as §1, §2

[8] = system: E. coli B; type: cell-based; conditions: Escherichia coli; for activity at 10000 µM: read-out: relative %-respiratory activity; for activity at 20000 µM: effector 20 mM
Excerpt: as §1, §2

[9] = system: E. coli HB101; type: cell-based; conditions: Escherichia coli; for activity at 20000 µM: effector 20 mM
Excerpt: as §1, §2

[10] = system: P. aeruginosa; type: cell-based, Pseudomonas aeruginosa; conditions: Pseudomonas aeruginosa; for activity at 10000 µM: read-out: relative %-respiratory activity; for activity at 20000 µM: effector 20 mM
Excerpt: as §1, §2

[11] = ATCC6380, read-out: relative %-respiratory activity
[12] = JM105, read-out: relative %-respiratory activity
[13] = HB101, read-out: relative %-respiratory activity
[14] = ATCC6380, 5 μM DCIP, no effector = 100%, n = 20
[15] = 5 μM DCIP, no effector = 100%, n = 10
[16] = 5 μM DCIP, no effector = 100%, n = 20
[17] = 5 μM DCIP, no effector = 100%, n = 26
[18] = JM105, 5 μM DCIP, no effector = 100%, n = 10
[19] = HB101, 5 μM DCIP, no effector = 100%, n = 18
[20] = 5 μM DCIP, no effector = 100%, n = 18
[21] = effector 30 mM, 5 μM DCIP, no effector = 100%, n = 10
[22] = effector 30 mM, 5 μM DCIP, no effector = 100%, n = 20
[23] = effector 30 mM, 5 μM DCIP, no effector = 100%, n = 26
[24] = ATCC6380, effector 10 mM, 5 μM DCIP, no effector = 100%, n = 20, read-out: relative %-respiratory activity
[25] = effector 10 mM, 5 μM DCIP, no effector = 100%, n = 10
[26] = effector 10 mM, 5 μM DCIP, no effector = 100%, n = 20
[27] = effector 10 mM, 5 μM DCIP, no effector = 100%, n = 26
[28] = JM105, effector 10 mM, 5 μM DCIP, no effector = 100%, n = 10, read-out: relative %-respiratory activity
[29] = HB101, effector 10 mM, 5 μM DCIP, no effector = 100%, n = 18, read-out: relative %-respiratory activity
[30] = effector 10 mM, 5 μM DCIP, no effector = 100%, n = 18

Compound `O=CO` [Formic acid] has an activity at 10000 µM [1, 11] of 222%, an activity at 10000 µM [2] of 132% and an activity at 10000 µM [3] of 157%. The activity at 10000 µM [4] was 124%, the activity at 10000 µM [5] was 298% and the activity at 10000 µM [6, 12] was 136%. It also gave an activity at 10000 µM [7] of 114%, an activity at 10000 µM [8] of 132% and an activity at 10000 µM [9, 13] of 163%. The activity at 10000 µM [10] was 120%.
In the case of `OC[C@H]1O[C@@](CO)(O[C@H]2O[C@H](CO)[C@@H](O)[C@H](O)[C@H]2O)[C@@H](O)[C@@H]1O` [Sucrose], the activity at 20000 µM [1, 14] is reported as 164%, the activity at 20000 µM [2, 15] is reported as 161% and the activity at 20000 µM [3, 16] is reported as 465%. It also gave an activity at 20000 µM [4, 17] of 188%, an activity at 20000 µM [5, 16] of 290% and an activity at 20000 µM [6, 18] of 121%. The activity at 20000 µM [7, 17] was 122%, the activity at 20000 µM [8, 15] was 124% and the activity at 20000 µM [9, 19] was 110%. For the same compound, the activity at 20000 µM [10, 20] was 117%.
Compound `OC[C@@H](O)[C@@H](O)[C@H](O)[C@@H](O)CO` [D-sorbitol] has an activity at 30000 µM ([1]; ATCC6380, effector 30 mM, 5 μM DCIP, no effector = 100%, n = 20) of 186%, an activity at 30000 µM [2, 21] of 113% and an activity at 30000 µM [3, 22] of 179%. It also gave an activity at 30000 µM [4, 23] of 260%, an activity at 30000 µM [5, 22] of 167% and an activity at 30000 µM ([6]; JM105, effector 30 mM, 5 μM DCIP, no effector = 100%, n = 10) of 168%. It also gave an activity at 30000 µM [7, 23] of 111%, an activity at 30000 µM [8, 21] of 136% and an activity at 30000 µM ([9]; HB101, effector 30 mM, 5 μM DCIP, no effector = 100%, n = 18) of 124%. For the same compound, the activity at 30000 µM ([10]; effector 30 mM, 5 μM DCIP, no effector = 100%, n = 18) was 104%.
Work on `OC[C@H]1O[C@@H]2O[C@H]3[C@H](O)[C@@H](O)[C@@H](O[C@H]4[C@H](O)[C@@H](O)[C@@H](O[C@H]5[C@H](O)[C@@H](O)[C@@H](O[C@H]6[C@H](O)[C@@H](O)[C@@H](O[C@H]7[C@H](O)[C@@H](O)[C@@H](O[C@H]8[C@H](O)[C@@H](O)[C@@H](O[C@H]1[C@H](O)[C@H]2O)O[C@@H]8CO)O[C@@H]7CO)O[C@@H]6CO)O[C@@H]5CO)O[C@@H]4CO)O[C@@H]3CO` [Beta-cyclodextrin] yielded an activity at 10000 µM [1, 24] of 151%, an activity at 10000 µM [2, 25] of 112% and an activity at 10000 µM [3, 26] of 155%. It also gave an activity at 10000 µM [4, 27] of 110%, an activity at 10000 µM [5, 26] of 98% and an activity at 10000 µM [6, 28] of 187%. For the same compound, the activity at 10000 µM [7, 27] was 81%, the activity at 10000 µM [8, 25] was 125% and the activity at 10000 µM [9, 29] was 132%. The activity at 10000 µM [10, 30] was 90%.
`O=C[C@@H](O)[C@H](O)[C@H](O)CO` [D-arabinose] gave an activity at 20000 µM [1, 14] of 150%, an activity at 20000 µM [2, 15] of 143% and an activity at 20000 µM [3, 16] of 139%. For the same compound, the activity at 20000 µM [4, 17] was 106%, the activity at 20000 µM [5, 16] was 115% and the activity at 20000 µM [6, 18] was 137%. It also gave an activity at 20000 µM [7, 17] of 103%, an activity at 20000 µM [8, 15] of 118% and an activity at 20000 µM [9, 19] of 107%. For the same compound, the activity at 20000 µM [10, 20] was 113%.
For `N[C@@H](Cc1c[nH]c2ccccc12)C(=O)O` [L-tryptophan], the activity at 10000 µM [1, 11] was 521%, the activity at 10000 µM [2] was 188% and the activity at 10000 µM [3] was 232%. The activity at 10000 µM [4] was 126%, the activity at 10000 µM [5] was 139% and the activity at 10000 µM [6, 12] was 133%. For the same compound, the activity at 10000 µM [7] was 93%, the activity at 10000 µM [8, 25] was 98% and the activity at 10000 µM [9, 13] was 129%. It also gave an activity at 10000 µM [10] of 170%.
With `O=C(O)CC(=O)O` [Malonic acid] the activity at 10000 µM [1, 24] was 125%, the activity at 10000 µM [2, 25] was 110% and the activity at 10000 µM [3, 26] was 146%. The activity at 10000 µM [4, 27] was 156%, the activity at 10000 µM [5, 26] was 117% and the activity at 10000 µM [6, 28] was 160%. It also gave an activity at 10000 µM [7, 27] of 141%, an activity at 10000 µM [9, 29] of 124% and an activity at 10000 µM [10, 30] of 125%.
